{"source": "paper PMC5071873", "about": "“The Effects of Puerarin on Rat Ventricular Myocytes and the Potential Mechanism” (Scientific Reports, 2016)", "key": {"rat ventricular myocytes": {"system": "rat ventricular myocytes", "assay": "Action potential recording on isolated rat ventricular myocytes", "type": "cell-based", "details": "for APA: control 112.5 ± 6.3; for Vmax: control 226.9 ± 12.4; for RMP: control −80.1 ± 2.7", "method": "(§1) The Tyrode’s solution contained (mM): 126 NaCl, 5.4 KCl, 1.8 CaCl2, 1 MgCl2, 0.33 NaH2PO4, 10 HEPES and 10 glucose, pH 7.4 (adjusted with NaOH). The Ca^2+-free Tyrode’s solution was prepared by removing CaCl2 from the Tyrode’s solution. The Kreb’s solution used for cell storage contained (mM): 70 glutamic acid, 30 KCl, 15 taurine, 0.5 MgCl2, 10 KH2PO4, 0.5 EGTA, 10 HEPES, 10 glucose, and 1% albumin, pH 7.4 (adjusted with KOH). The enzyme solution used for the rat cardiomyocyte isolation contained 0.08 g/L collagenase (type II) and 1.0 g/L BSA in Kreb’s solution. For action potential recording on cardiomyocyte, the pipette solution contained (mM): 100 potassium aspartate, 30 KCl, 1 MgCl2, 5 Mg-ATP, 5 EGTA, 5 HEPES, pH 7.3 (adjusted with KOH); the Tyrode’s solution was used as the standard bath solution. For whole-cell recording of IKs on myocytes, the pipette solution contained (mM): 125 potassium aspartate, 20 KCl, 1 MgCl2, 5 Mg-ATP, 10 EGTA, 5 HEPES, pH 7.3 (adjusted with KOH); the bath solution contained (mM): 132 NaCl, 4 KCl, 1.8 CaCl2, 1.2 MgCl2, 10 HEPES, 5 glucose, pH 7.4 (adjusted with NaOH). 3 μM nifedipine and 5 μM E-4031 were used to block the calcium current and IKr, respectively. For whole-cell recording on HEK-293 cells, the pipette solution contained (mM): 140 KCl, 2 MgCl2, 10 HEPES, 0.1 EGTA, 4 K2-ATP, pH 7.3 (adjusted with KOH); the bath solution contained (mM): 120 NaCl, 5 KCl, 1.5 CaCl2, 1 MgCl2, 10 HEPES, 10 glucose, pH 7.4 (adjusted with NaOH). For single-channel recording, the pipette solution (extracellular) contained (mM): 145 KCl, 10 HEPES, 10 glucose, pH 7.4 (adjusted with KOH); the bath solution (intracellular) contained (mM): 145 KCl, 1.2 MgCl2, 10 HEPES, 0.1 EGTA, pH 7.38 (adjusted with KOH).\nSingle ventricular myocytes were isolated from adult rat hearts via enzymatic dissociation as previously described. Briefly, the rats were anesthetised with 25% chloral hydrate (0.1 g/100 g). Their hearts were excised rapidly and retrogradely perfused on a Langendorff apparatus with a Ca^2+-free Tyrode’s solution for 5 min before the perfusate was switched to an enzymatic solution for 10–20 min. The perfusate was finally changed to Kreb’s solution for 5 min. The perfusates were bubbled with 95% O2 + 5% CO2 and maintained at 37 °C. The ventricles w ere cut into small chunks and gently agitated in Kreb’s solution. The cells were filtered through nylon mesh (pore size 200 μm) and stored in Kreb’s solution at 4 °C.\nAction potentials were elicited at 1 Hz by 2 ms current pulses applied using the patch pipette.\n(§2) Cell suspensions were transferred into a chamber on the stage of a Nikon Eclipse Ti inverted microscope (Tokyo, Japan). The whole-cell recordings were performed using isolated single ventricular myocytes. Patch electrodes were pulled from a horizontal microelectrode puller (P-1000, Sutter Instrument Co, USA) and fire polished to final tip resistance of 4.0–8.0 MΩ when filled with internal solutions. Signals were amplified with an Axopatch 200B amplifier (Axon Instruments, USA) and filtered at 1 kHz. The pCLAMP 9.0 software was used to generate current and voltage clamp protocols, acquire data, and analyse the current traces. The whole-cell series resistance was compensated to more than 80%. All of the experiments were performed at room temperature (22 ± 1 °C). The whole-cell IK1 was elicited by a ramp voltage protocol from −140 to + 40 mV in 1 s, or at a 0 mV holding potential to test potentials from −140 to + 40 mV in 10 mV increments. The IK1 was calculated as the difference between the peak inward current and the holding current level. The whole-cell Kv7.1/IKs were elicited from a −30 mV holding potential to test potentials from −80 to + 40 mV in 10 mV increments."}, "Kv7.1": {"target": "T1, Kv7.1 (Homo sapiens, UniProt P51787)", "T1 construct": "expressed in transfected cells; host or cells: HEK293", "assay": "Whole-cell patch clamp of Kv7.1 currents (voltage steps) in transfected HEK293 cells", "type": "cell-based", "details": "for IC50: HEK293, non-linear Hill fit, n = 6 each point; for Kv7.1-tail current density / Kv7.1 current density: at 40 mV; for Kv7.1-tail current density: control 10.4 ± 0.6; for Kv7.1 current density: control 24.3 ± 1.1", "method": "as §1, §2\nHuman Kir2.1 cDNA, Kir2.3 cDNA, Kv7.1 cDNA and KCNE1 cDNA, was cloned in Human Embryonic Kidney 293 cells, respectively. In some cases, Kv7.1 cDNA and KCNE1 cDNA were simultaneously cloned in Human Embryonic Kidney 293 cells."}}, "note": "Like-named read-outs stand apart in the source and are kept apart here.", "data": [{"smiles": "O=c1c(-c2ccc(O)cc2)coc2c([C@@H]3O[C@H](CO)[C@@H](O)[C@H](O)[C@H]3O)c(O)ccc12", "note": "[Puerarin, 8-c-glucoside of daidzein]", "values": [{"measurement": "APD50", "setting": "rat ventricular myocytes; puerarin 0.01 mM, control 71.8 ± 11.8", "result": "86.9 ± 10.7", "unit": "ms"}, {"measurement": "APA", "setting": "rat ventricular myocytes; puerarin 0.01 mM", "result": "109.8 ± 8.5", "unit": "mV"}, {"measurement": "APD90", "setting": "rat ventricular myocytes; puerarin 0.01 mM, control 164.6 ± 21.4", "result": "188.3 ± 11.5", "unit": "ms"}, {"measurement": "Vmax", "setting": "rat ventricular myocytes; puerarin 0.01 mM", "result": "217.5 ± 10.7", "unit": "V/s"}, {"measurement": "RMP", "setting": "rat ventricular myocytes; puerarin 0.01 mM", "result": "−80.5 ± 2.2", "unit": "mV"}, {"measurement": "effect on RMP, APA and Vmax", "setting": "rat ventricular myocytes; puerarin 100 μM", "result": "not affected"}, {"measurement": "effect on isoproterenol-reduced APD (APD50, APD90)", "setting": "rat ventricular myocytes; puerarin 100 μM with isoproterenol 10 nM", "result": "significantly offseted the reduced effect of isoproterenol"}, {"measurement": "APD50", "setting": "rat ventricular myocytes; puerarin 100 μM, from (71.8 ± 11.8) mS", "result": "100.5 ± 14.1", "unit": "mS"}, {"measurement": "APD90", "setting": "rat ventricular myocytes; puerarin 100 μM, from (164.6 ± 21.4) mS", "result": "221.6 ± 25.7", "unit": "mS"}, {"measurement": "APD50", "setting": "rat ventricular myocytes; puerarin 0.1 mM, control 71.8 ± 11.8", "result": "100.5 ± 14.1", "unit": "ms"}, {"measurement": "APA", "setting": "rat ventricular myocytes; puerarin 0.1 mM", "result": "114.2 ± 4.9", "unit": "mV"}, {"measurement": "APD90", "setting": "rat ventricular myocytes; puerarin 0.1 mM, control 164.6 ± 21.4", "result": "221.6 ± 25.7", "unit": "ms"}, {"measurement": "Vmax", "setting": "rat ventricular myocytes; puerarin 0.1 mM", "result": "242.1 ± 13.8", "unit": "V/s"}, {"measurement": "RMP", "setting": "rat ventricular myocytes; puerarin 0.1 mM", "result": "−80.3 ± 1.6", "unit": "mV"}, {"measurement": "APD50", "setting": "rat ventricular myocytes; puerarin 1 mM, control 71.8 ± 11.8", "result": "123.6 ± 25.4", "unit": "ms"}, {"measurement": "APA", "setting": "rat ventricular myocytes; puerarin 1 mM", "result": "115.9 ± 6.2", "unit": "mV"}, {"measurement": "APD90", "setting": "rat ventricular myocytes; puerarin 1 mM, control 164.6 ± 21.4", "result": "278.7 ± 28.2", "unit": "ms"}, {"measurement": "Vmax", "setting": "rat ventricular myocytes; puerarin 1 mM", "result": "236.1 ± 15.9", "unit": "V/s"}, {"measurement": "RMP", "setting": "rat ventricular myocytes; puerarin 1 mM", "result": "−79.7 ± 1.5", "unit": "mV"}, {"measurement": "APD50", "setting": "rat ventricular myocytes; puerarin 10 mM, control 71.8 ± 11.8", "result": "131.4 ± 19.6", "unit": "ms"}, {"measurement": "APA", "setting": "rat ventricular myocytes; puerarin 10 mM", "result": "112.6 ± 4.7", "unit": "mV"}, {"measurement": "APD90", "setting": "rat ventricular myocytes; puerarin 10 mM, control 164.6 ± 21.4", "result": "330.1 ± 22.3", "unit": "ms"}, {"measurement": "Vmax", "setting": "rat ventricular myocytes; puerarin 10 mM", "result": "238.4 ± 11.5", "unit": "V/s"}, {"measurement": "RMP", "setting": "rat ventricular myocytes; puerarin 10 mM", "result": "−75.3 ± 2.4", "unit": "mV"}, {"measurement": "APD50", "setting": "rat ventricular myocytes; puerarin 100 mM, control 71.8 ± 11.8", "result": "146.9 ± 21.8", "unit": "ms"}, {"measurement": "APA", "setting": "rat ventricular myocytes; puerarin 100 mM", "result": "113.8 ± 5.1", "unit": "mV"}, {"measurement": "APD90", "setting": "rat ventricular myocytes; puerarin 100 mM, control 164.6 ± 21.4", "result": "415.6 ± 28.4", "unit": "ms"}, {"measurement": "Vmax", "setting": "rat ventricular myocytes; puerarin 100 mM", "result": "240.6 ± 12.1", "unit": "V/s"}, {"measurement": "RMP", "setting": "rat ventricular myocytes; puerarin 100 mM", "result": "−74.7 ± 2.6", "unit": "mV"}, {"measurement": "APD50", "setting": "rat ventricular myocytes; puerarin 200 mM, control 71.8 ± 11.8", "result": "162.3 ± 23.5", "unit": "ms"}, {"measurement": "APD90", "setting": "rat ventricular myocytes; puerarin 200 mM, control 164.6 ± 21.4", "result": "439.5 ± 29.6", "unit": "ms"}, {"measurement": "RMP", "setting": "rat ventricular myocytes; puerarin 200 mM", "result": "−73.5 ± 2.1", "unit": "mV"}, {"measurement": "APA", "setting": "rat ventricular myocytes; puerarin", "result": "111.7 ± 5.6", "unit": "mV"}, {"measurement": "Vmax", "setting": "rat ventricular myocytes; puerarin", "result": "237.8 ± 10.4", "unit": "V/s"}, {"measurement": "IC50", "setting": "Kv7.1; read-out: IC50, inhibition of Kv7.1 at the peak currents", "result": 36, "unit": "µM"}, {"measurement": "IC50", "setting": "Kv7.1; read-out: IC50, inhibition of Kv7.1 at the tail currents", "result": 39.8, "unit": "µM"}, {"measurement": "Hill coefficient, inhibition of Kv7.1", "setting": "Kv7.1; non-linear Hill fit", "result": 0.997}, {"measurement": "Kv7.1-tail current density", "setting": "Kv7.1; puerarin 10 μM", "result": "8.8 ± 0.7", "unit": "pA/pF"}, {"measurement": "Kv7.1 current density", "setting": "Kv7.1; puerarin 10 μM", "result": "19.1 ± 1.0", "unit": "pA/pF"}, {"measurement": "effect on Kv7.1 current activated by isoproterenol, forskolin or 8-Br-cAMP", "setting": "Kv7.1; puerarin 100 μM", "result": "antagonized such activation effect"}, {"measurement": "Kv7.1-tail current density", "setting": "Kv7.1; puerarin 100 μM", "result": "3.8 ± 0.6", "unit": "pA/pF"}, {"measurement": "Kv7.1 current density", "setting": "Kv7.1; puerarin 100 μM", "result": "7.9 ± 0.8", "unit": "pA/pF"}, {"measurement": "Kv7.1-tail current density", "setting": "Kv7.1; puerarin 1 mM", "result": "2.5 ± 0.9", "unit": "pA/pF"}, {"measurement": "Kv7.1 current density", "setting": "Kv7.1; puerarin 1 mM", "result": "6.1 ± 0.4", "unit": "pA/pF"}, {"measurement": "Kv7.1-tail current density", "setting": "Kv7.1; puerarin 10 mM", "result": "2.0 ± 0.5", "unit": "pA/pF"}, {"measurement": "Kv7.1 current density", "setting": "Kv7.1; puerarin 10 mM", "result": "4.8 ± 0.8", "unit": "pA/pF"}]}]}
